Results: PubChem BioAssay (NCI)
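96-well plates; 48 h exposure; 5 concentrations. Endpoints by linear interpolation between flanking doses. Not reached: highest tested concentration assigned. At the TGI there is no net growth.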

Key:
Assay in all cases: NCI anticancer screen, dose series, 48 h
MDA-N = system: MDA-N
MALME-3M melanoma = system: MALME-3M melanoma
OVCAR-8 ovarian = system: OVCAR-8 ovarian
LOX IMVI melanoma = system: LOX IMVI melanoma
RXF 393 renal = system: RXF 393 renal
A498 renal = system: A498 renal
ACHN renal = system: ACHN renal
786-0 renal = system: 786-0 renal
DU-145 prostate = system: DU-145 prostate
RPMI-8226 leukemia = system: RPMI-8226 leukemia
NCI-H522 lung = system: NCI-H522 lung
OVCAR-4 ovarian = system: OVCAR-4 ovarian
M14 melanoma = system: M14 melanoma
SNB-19 CNS = system: SNB-19 CNS
PC-3 prostate = system: PC-3 prostate
UACC-257 melanoma = system: UACC-257 melanoma
MDA-MB-231 breast = system: MDA-MB-231 breast
NCI-H460 lung = system: NCI-H460 lung
OVCAR-3 ovarian = system: OVCAR-3 ovarian
SK-MEL-5 melanoma = system: SK-MEL-5 melanoma
MDA-MB-435 = system: MDA-MB-435
COLO 205 colon = system: COLO 205 colon
OVCAR-5 ovarian = system: OVCAR-5 ovarian
SK-OV-3 ovarian = system: SK-OV-3 ovarian
U251 CNS = system: U251 CNS
NCI-H226 lung = system: NCI-H226 lung
MOLT-4 leukemia = system: MOLT-4 leukemia
EKVX NSCLC = system: EKVX NSCLC
SF-539 CNS = system: SF-539 CNS
SN12C renal = system: SN12C renal
SK-MEL-2 melanoma = system: SK-MEL-2 melanoma
HT29 colon = system: HT29 colon
MCF7 breast = system: MCF7 breast
HCT-15 colon = system: HCT-15 colon
HL-60(TB) leukemia = system: HL-60(TB) leukemia
T-47D breast = system: T-47D breast
HS 578T breast = system: HS 578T breast
HCT-116 colon = system: HCT-116 colon
NCI/ADR-RES ovarian = system: NCI/ADR-RES ovarian
NCI-H23 lung = system: NCI-H23 lung
CAKI-1 renal = system: CAKI-1 renal
HOP-92 NSCLC = system: HOP-92 NSCLC
KM12 colon = system: KM12 colon
IGROV1 ovarian = system: IGROV1 ovarian
CCRF-CEM leukemia = system: CCRF-CEM leukemia
SF-295 CNS = system: SF-295 CNS
SNB-75 CNS = system: SNB-75 CNS
SW-620 colon = system: SW-620 colon
HOP-62 NSCLC = system: HOP-62 NSCLC
HCC-2998 colon = system: HCC-2998 colon
A549 NSCLC = system: A549 NSCLC
UO-31 renal = system: UO-31 renal
SF-268 CNS = system: SF-268 CNS
TK-10 renal = system: TK-10 renal
SK-MEL-28 melanoma = system: SK-MEL-28 melanoma
K-562 leukemia = system: K-562 leukemia
UACC-62 melanoma = system: UACC-62 melanoma

## NC(N)=N/N=C/c1cc(Cl)cc(Cl)c1O
MDA-N
  TGI: > 100 µM
MALME-3M melanoma
  TGI: > 100 µM
OVCAR-8 ovarian
  TGI: > 100 µM
LOX IMVI melanoma
  TGI: > 100 µM
RXF 393 renal
  TGI: > 100 µM
A498 renal
  TGI: > 100 µM
ACHN renal
  TGI: > 100 µM
786-0 renal
  TGI: > 100 µM
DU-145 prostate
  TGI: > 100 µM
RPMI-8226 leukemia
  TGI: > 100 µM
NCI-H522 lung
  TGI: > 100 µM
OVCAR-4 ovarian
  TGI: > 100 µM
M14 melanoma
  TGI: > 100 µM
SNB-19 CNS
  TGI: > 100 µM
PC-3 prostate
  TGI: > 100 µM
UACC-257 melanoma
  TGI: > 100 µM
MDA-MB-231 breast
  TGI: > 100 µM
NCI-H460 lung
  TGI: > 100 µM
OVCAR-3 ovarian
  TGI: > 100 µM
SK-MEL-5 melanoma
  TGI: > 100 µM
MDA-MB-435
  TGI: > 100 µM
COLO 205 colon
  TGI: > 100 µM
OVCAR-5 ovarian
  TGI: > 100 µM
SK-OV-3 ovarian
  TGI: > 100 µM
U251 CNS
  TGI: > 100 µM
NCI-H226 lung
  TGI: > 100 µM
MOLT-4 leukemia
  TGI: > 100 µM
EKVX NSCLC
  TGI: > 100 µM
SF-539 CNS
  TGI: > 100 µM
SN12C renal
  TGI: > 100 µM
SK-MEL-2 melanoma
  TGI: > 100 µM
HT29 colon
  TGI: > 100 µM
MCF7 breast
  TGI: > 100 µM
HCT-15 colon
  TGI: 58.9 µM
HL-60(TB) leukemia
  TGI: > 100 µM
T-47D breast
  TGI: > 100 µM
HS 578T breast
  TGI: > 100 µM
HCT-116 colon
  TGI: > 100 µM
NCI/ADR-RES ovarian
  TGI: > 100 µM
NCI-H23 lung
  TGI: > 100 µM
CAKI-1 renal
  TGI: > 100 µM
HOP-92 NSCLC
  TGI: > 100 µM
KM12 colon
  TGI: > 100 µM
IGROV1 ovarian
  TGI: > 100 µM
CCRF-CEM leukemia
  TGI: > 100 µM
SF-295 CNS
  TGI: > 100 µM
SNB-75 CNS
  TGI: 89.1 µM
SW-620 colon
  TGI: > 100 µM
HOP-62 NSCLC
  TGI: > 100 µM
HCC-2998 colon
  TGI: 32 µM
A549 NSCLC
  TGI: > 100 µM
UO-31 renal
  TGI: > 100 µM
SF-268 CNS
  TGI: > 100 µM
TK-10 renal
  TGI: > 100 µM
SK-MEL-28 melanoma
  TGI: > 100 µM
K-562 leukemia
  TGI: > 100 µM
UACC-62 melanoma
  TGI: > 100 µM

## CC(=O)c1sc2c(c1OC(=O)c1cccs1)c(=O)n(-c1ccccc1)c(=S)n2-c1ccccc1
MDA-N
  TGI: 19.2 µM
MALME-3M melanoma
  TGI: 6.7 µM
OVCAR-8 ovarian
  TGI: 21.1 µM
LOX IMVI melanoma
  TGI: 17.2 µM
RXF 393 renal
  TGI: 18.6 µM
A498 renal
  TGI: 15.9 µM
ACHN renal
  TGI: 11.1 µM
786-0 renal
  TGI: 15.5 µM
DU-145 prostate
  TGI: 57.8 µM
RPMI-8226 leukemia
  TGI: 20.3 µM
NCI-H522 lung
  TGI: 6.07 µM
OVCAR-4 ovarian
  TGI: 38.8 µM
M14 melanoma
  TGI: 10.6 µM
SNB-19 CNS
  TGI: 44.8 µM
PC-3 prostate
  TGI: 15.2 µM
UACC-257 melanoma
  TGI: 43.9 µM
MDA-MB-231 breast
  TGI: 32.2 µM
NCI-H460 lung
  TGI: 25.3 µM
OVCAR-3 ovarian
  TGI: 50.4 µM
SK-MEL-5 melanoma
  TGI: 25.8 µM
MDA-MB-435
  TGI: 20.8 µM
COLO 205 colon
  TGI: 32.5 µM
OVCAR-5 ovarian
  TGI: 13.2 µM
SK-OV-3 ovarian
  TGI: 52 µM
U251 CNS
  TGI: 26.7 µM
NCI-H226 lung
  TGI: 9.84 µM
MOLT-4 leukemia
  TGI: 60.8 µM
EKVX NSCLC
  TGI: 51.1 µM
SF-539 CNS
  TGI: 6.26 µM
SN12C renal
  TGI: 15.1 µM
HT29 colon
  TGI: 11.6 µM
MCF7 breast
  TGI: 56.4 µM
HCT-15 colon
  TGI: 36.5 µM
HL-60(TB) leukemia
  TGI: 52.2 µM
T-47D breast
  TGI: > 100 µM
HS 578T breast
  TGI: 22.3 µM
HCT-116 colon
  TGI: 36.6 µM
NCI/ADR-RES ovarian
  TGI: 43.3 µM
NCI-H23 lung
  TGI: 40.9 µM
CAKI-1 renal
  TGI: 61.1 µM
HOP-92 NSCLC
  TGI: 22.1 µM
KM12 colon
  TGI: 59 µM
IGROV1 ovarian
  TGI: 35.4 µM
CCRF-CEM leukemia
  TGI: 22.6 µM
SF-295 CNS
  TGI: 7.13 µM
SNB-75 CNS
  TGI: 68.8 µM
SW-620 colon
  TGI: 45.9 µM
HOP-62 NSCLC
  TGI: 33.9 µM
HCC-2998 colon
  TGI: > 100 µM
A549 NSCLC
  TGI: > 100 µM
SF-268 CNS
  TGI: 51.5 µM
TK-10 renal
  TGI: 55.4 µM
SK-MEL-28 melanoma
  TGI: 15.6 µM
K-562 leukemia
  TGI: 95.4 µM
UACC-62 melanoma
  TGI: 37.9 µM
